Experimental data: patent publication US20250243196A1, “CITRON KINASE INHIBITORS” (The Cleveland Clinic Foundation, priority 2021, published 2025)

Experiments:
Assay in all cases: KinaseProfiler panel
Format in all cases: biochemical
Conditions in all cases: activity remaining
CDK2/cyclinE(h) = CDK2/cyclinE(h) (Homo sapiens (Human), UniProt P24941); design: dose or concentration left out as unconfirmed
PKD3(h) = PKD3(h) (Homo sapiens (Human), UniProt O94806); design: dose or concentration left out as unconfirmed
PIP4K2a(h) = PIP4K2a(h) (Homo sapiens (Human), UniProt P48426); design: dose or concentration left out as unconfirmed
MuSK(h) = MuSK(h) (Homo sapiens (Human), UniProt O15146); design: dose or concentration left out as unconfirmed
Axl(h) = Axl(h) (Homo sapiens (Human), UniProt P30530); design: dose or concentration left out as unconfirmed
[1] = biological target: PI3 Kinase (p110a/p85a)(h) (Homo sapiens (Human), UniProt P42336); design: dose or concentration left out as unconfirmed
MRCKα(h) = MRCKα(h) (Homo sapiens (Human), UniProt Q5VT25); design: dose or concentration left out as unconfirmed
PEK(h) = PEK(h) (Homo sapiens (Human), UniProt Q9NZJ5); design: dose or concentration left out as unconfirmed
CDK18/cyclinY(h) = CDK18/cyclinY(h) (Homo sapiens (Human), UniProt Q07002); design: dose or concentration left out as unconfirmed
MSK1(h) = MSK1(h) (Homo sapiens (Human), UniProt O75582); design: dose or concentration left out as unconfirmed
ALK1(h) = ALK1(h) (Homo sapiens (Human), UniProt P37023); design: dose or concentration left out as unconfirmed
ZAP-70(h) = ZAP-70(h) (Homo sapiens (Human), UniProt P43403); design: dose or concentration left out as unconfirmed
WNK2(h) = WNK2(h) (Homo sapiens (Human), UniProt Q9Y3S1); design: dose or concentration left out as unconfirmed
CDK5/p25(h) = CDK5/p25(h) (Homo sapiens (Human), UniProt Q00535); design: dose or concentration left out as unconfirmed
cKit(h) = cKit(h) (Homo sapiens (Human), UniProt P10721); design: dose or concentration left out as unconfirmed
FGFR3(h) = FGFR3(h) (Homo sapiens (Human), UniProt P22607); design: dose or concentration left out as unconfirmed
SAPK2b(h) = SAPK2b(h) (Homo sapiens (Human), UniProt Q15759); design: dose or concentration left out as unconfirmed
PKCμ(h) = PKCμ(h) (Homo sapiens (Human), UniProt Q15139); design: dose or concentration left out as unconfirmed
[2] = biological target: PI3 Kinase (p110b/p85a)(h) (Homo sapiens (Human), UniProt P42338); design: dose or concentration left out as unconfirmed
TAO3(h) = TAO3(h) (Homo sapiens (Human), UniProt Q9H2K8); design: dose or concentration left out as unconfirmed
JAK2(h) = JAK2(h) (Homo sapiens (Human), UniProt O60674); design: dose or concentration left out as unconfirmed
CaMKIIβ(h) = CaMKIIβ(h) (Homo sapiens (Human), UniProt Q13554); design: dose or concentration left out as unconfirmed
PI3 Kinase (p120g)(h) = PI3 Kinase (p120g)(h) (Homo sapiens (Human), UniProt P48736)
IKKβ(h) = IKKβ(h) (Homo sapiens (Human), UniProt O14920); design: dose or concentration left out as unconfirmed
CK2α1(h) = CK2α1(h) (Homo sapiens (Human), UniProt P68400); design: dose or concentration left out as unconfirmed
CDK9/cyclin T1(h) = CDK9/cyclin T1(h) (Homo sapiens (Human), UniProt P50750); design: dose or concentration left out as unconfirmed
ALK6(h) = ALK6(h) (Homo sapiens (Human), UniProt O00238); design: dose or concentration left out as unconfirmed
MLK3(h) = MLK3(h) (Homo sapiens (Human), UniProt Q16584); design: dose or concentration left out as unconfirmed
BrSK2(h) = BrSK2(h) (Homo sapiens (Human), UniProt Q8IWQ3); design: dose or concentration left out as unconfirmed
NEK3(h) = NEK3(h) (Homo sapiens (Human), UniProt P51956); design: dose or concentration left out as unconfirmed
Txk(h) = Txk(h) (Homo sapiens (Human), UniProt P42681); design: dose or concentration left out as unconfirmed
CDK16/cyclinY(h) = CDK16/cyclinY(h) (Homo sapiens (Human), UniProt Q00536); design: dose or concentration left out as unconfirmed

Chain of NEK3(h) (P51956 whole entry): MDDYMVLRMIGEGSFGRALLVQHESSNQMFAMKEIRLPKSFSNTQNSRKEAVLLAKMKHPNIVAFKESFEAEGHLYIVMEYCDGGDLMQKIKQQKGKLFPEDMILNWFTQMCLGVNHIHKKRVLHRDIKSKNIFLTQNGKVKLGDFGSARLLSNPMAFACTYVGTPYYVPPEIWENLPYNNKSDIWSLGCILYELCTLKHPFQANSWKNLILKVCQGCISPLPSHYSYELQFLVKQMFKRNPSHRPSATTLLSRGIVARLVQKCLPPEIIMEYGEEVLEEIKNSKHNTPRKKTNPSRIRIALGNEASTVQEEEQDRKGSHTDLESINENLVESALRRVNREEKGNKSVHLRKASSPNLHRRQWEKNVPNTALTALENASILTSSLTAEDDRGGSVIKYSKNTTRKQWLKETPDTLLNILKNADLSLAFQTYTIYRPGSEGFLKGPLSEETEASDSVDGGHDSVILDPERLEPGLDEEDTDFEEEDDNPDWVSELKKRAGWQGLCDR
Chain of MSK1(h) (O75582 whole entry): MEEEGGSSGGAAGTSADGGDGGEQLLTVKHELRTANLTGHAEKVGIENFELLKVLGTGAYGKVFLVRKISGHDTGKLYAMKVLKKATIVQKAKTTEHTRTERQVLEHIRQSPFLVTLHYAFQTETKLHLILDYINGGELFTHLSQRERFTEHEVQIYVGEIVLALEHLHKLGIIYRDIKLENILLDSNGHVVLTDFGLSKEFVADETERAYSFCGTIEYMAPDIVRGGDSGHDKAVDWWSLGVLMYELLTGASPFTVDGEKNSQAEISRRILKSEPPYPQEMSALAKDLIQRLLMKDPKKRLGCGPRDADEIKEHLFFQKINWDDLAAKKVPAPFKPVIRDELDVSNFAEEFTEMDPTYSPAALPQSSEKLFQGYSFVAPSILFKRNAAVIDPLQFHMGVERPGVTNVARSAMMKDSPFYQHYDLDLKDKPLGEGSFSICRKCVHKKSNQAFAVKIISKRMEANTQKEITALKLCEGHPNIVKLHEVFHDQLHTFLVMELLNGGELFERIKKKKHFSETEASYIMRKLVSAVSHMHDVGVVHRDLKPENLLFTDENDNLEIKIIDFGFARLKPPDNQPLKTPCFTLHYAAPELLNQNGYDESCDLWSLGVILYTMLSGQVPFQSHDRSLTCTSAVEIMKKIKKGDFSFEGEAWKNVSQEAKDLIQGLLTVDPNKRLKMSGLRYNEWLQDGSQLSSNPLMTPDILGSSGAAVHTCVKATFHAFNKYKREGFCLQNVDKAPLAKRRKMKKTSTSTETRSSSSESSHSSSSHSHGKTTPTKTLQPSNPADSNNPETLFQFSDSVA
Chain of CDK5/p25(h) (Q00535 whole entry): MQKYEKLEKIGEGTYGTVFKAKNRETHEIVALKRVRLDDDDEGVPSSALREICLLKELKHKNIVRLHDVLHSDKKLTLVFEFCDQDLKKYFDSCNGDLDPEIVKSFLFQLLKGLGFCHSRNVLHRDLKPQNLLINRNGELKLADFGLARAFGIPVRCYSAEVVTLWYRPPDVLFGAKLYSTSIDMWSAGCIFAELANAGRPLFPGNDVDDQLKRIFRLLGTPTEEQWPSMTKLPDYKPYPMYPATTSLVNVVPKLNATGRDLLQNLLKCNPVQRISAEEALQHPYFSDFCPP
Chain of CDK5/p25(h) (Q15078 99-307 partner): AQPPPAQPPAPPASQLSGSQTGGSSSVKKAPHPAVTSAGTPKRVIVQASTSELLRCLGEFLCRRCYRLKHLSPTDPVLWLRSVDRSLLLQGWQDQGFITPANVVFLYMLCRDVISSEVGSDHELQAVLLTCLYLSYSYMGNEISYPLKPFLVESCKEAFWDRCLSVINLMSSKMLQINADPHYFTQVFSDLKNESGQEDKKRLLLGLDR
Chain of CaMKIIβ(h) (Q13554 whole entry): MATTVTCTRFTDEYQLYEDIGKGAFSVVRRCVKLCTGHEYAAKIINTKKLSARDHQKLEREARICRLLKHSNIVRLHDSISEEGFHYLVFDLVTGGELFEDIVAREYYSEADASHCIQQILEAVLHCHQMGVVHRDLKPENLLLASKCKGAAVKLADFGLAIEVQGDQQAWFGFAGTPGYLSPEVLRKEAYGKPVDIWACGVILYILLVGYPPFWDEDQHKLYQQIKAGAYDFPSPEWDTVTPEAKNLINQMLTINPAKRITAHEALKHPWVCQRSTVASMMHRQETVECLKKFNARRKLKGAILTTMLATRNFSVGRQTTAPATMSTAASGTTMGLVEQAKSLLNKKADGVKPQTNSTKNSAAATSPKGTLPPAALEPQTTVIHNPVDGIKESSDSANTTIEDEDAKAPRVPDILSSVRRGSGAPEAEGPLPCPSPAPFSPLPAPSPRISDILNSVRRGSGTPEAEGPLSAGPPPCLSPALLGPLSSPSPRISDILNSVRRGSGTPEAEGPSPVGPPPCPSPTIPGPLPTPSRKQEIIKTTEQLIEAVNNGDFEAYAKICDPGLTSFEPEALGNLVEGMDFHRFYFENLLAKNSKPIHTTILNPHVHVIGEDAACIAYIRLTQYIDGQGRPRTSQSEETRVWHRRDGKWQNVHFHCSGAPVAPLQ
Chain of JAK2(h) (O60674 whole entry): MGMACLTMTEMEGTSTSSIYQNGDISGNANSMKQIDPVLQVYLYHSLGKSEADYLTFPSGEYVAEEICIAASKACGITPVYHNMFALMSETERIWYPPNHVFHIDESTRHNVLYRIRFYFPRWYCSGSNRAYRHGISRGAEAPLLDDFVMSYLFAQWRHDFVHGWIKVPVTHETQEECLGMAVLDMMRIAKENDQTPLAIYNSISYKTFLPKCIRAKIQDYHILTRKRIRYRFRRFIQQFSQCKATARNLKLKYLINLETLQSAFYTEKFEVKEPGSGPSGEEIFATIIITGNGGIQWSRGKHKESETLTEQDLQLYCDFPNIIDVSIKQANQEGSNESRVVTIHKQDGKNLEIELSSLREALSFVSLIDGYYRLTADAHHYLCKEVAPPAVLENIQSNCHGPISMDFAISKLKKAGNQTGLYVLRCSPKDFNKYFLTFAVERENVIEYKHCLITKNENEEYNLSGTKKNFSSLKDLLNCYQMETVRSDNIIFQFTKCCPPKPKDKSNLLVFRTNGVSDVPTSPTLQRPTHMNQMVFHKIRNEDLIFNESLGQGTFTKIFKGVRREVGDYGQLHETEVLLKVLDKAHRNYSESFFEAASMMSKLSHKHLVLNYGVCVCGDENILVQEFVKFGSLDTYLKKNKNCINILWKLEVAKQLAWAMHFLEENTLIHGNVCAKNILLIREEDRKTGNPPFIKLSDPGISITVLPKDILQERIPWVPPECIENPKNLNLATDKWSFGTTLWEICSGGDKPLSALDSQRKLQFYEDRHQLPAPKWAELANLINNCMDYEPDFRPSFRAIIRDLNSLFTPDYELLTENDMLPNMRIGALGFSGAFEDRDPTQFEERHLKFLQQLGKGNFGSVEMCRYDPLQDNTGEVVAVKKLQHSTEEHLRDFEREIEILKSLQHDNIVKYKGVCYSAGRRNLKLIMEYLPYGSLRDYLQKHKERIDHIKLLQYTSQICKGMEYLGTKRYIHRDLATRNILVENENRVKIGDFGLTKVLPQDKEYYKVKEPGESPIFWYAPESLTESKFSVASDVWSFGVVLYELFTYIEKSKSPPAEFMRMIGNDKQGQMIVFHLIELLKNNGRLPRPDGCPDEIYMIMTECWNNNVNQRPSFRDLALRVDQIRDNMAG
Chain of ZAP-70(h) (P43403 whole entry): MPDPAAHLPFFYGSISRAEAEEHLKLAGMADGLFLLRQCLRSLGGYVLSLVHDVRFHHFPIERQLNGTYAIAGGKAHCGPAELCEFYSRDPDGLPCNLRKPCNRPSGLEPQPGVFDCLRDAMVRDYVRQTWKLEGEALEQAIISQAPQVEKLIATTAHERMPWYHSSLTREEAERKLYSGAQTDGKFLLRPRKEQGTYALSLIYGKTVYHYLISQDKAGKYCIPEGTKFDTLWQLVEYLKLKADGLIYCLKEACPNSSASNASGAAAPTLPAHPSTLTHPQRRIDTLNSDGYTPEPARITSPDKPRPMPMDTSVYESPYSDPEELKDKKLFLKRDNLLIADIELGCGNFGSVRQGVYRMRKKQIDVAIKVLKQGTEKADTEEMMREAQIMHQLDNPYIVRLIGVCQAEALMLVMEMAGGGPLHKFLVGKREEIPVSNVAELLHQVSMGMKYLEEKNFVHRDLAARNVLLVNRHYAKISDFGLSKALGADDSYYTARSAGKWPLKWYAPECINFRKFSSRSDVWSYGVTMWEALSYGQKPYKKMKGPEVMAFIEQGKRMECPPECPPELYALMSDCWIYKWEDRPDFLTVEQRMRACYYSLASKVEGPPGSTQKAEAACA
Chain of BrSK2(h) (Q8IWQ3 whole entry): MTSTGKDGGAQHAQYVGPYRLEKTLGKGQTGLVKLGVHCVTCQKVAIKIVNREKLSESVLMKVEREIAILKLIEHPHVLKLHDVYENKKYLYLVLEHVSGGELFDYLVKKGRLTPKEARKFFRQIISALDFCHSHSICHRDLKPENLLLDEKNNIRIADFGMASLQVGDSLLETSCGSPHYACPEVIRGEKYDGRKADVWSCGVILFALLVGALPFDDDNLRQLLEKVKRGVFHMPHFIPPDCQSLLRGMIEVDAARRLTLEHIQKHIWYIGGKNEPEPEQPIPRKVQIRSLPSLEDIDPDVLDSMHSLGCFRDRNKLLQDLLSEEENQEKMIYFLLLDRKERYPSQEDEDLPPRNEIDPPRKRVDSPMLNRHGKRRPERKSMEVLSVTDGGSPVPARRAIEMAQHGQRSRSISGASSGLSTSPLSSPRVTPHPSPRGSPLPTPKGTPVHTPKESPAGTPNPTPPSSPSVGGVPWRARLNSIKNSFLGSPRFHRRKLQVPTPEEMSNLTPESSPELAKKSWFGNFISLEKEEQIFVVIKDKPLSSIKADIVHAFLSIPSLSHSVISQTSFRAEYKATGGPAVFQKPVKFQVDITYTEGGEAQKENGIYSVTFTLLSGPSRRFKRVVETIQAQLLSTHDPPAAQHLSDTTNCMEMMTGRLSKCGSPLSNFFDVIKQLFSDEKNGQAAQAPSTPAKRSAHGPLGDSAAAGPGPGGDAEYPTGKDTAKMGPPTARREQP

Cc1cc2c(-c3ccc(NC(=O)[C@H](N)CC(C)(C)C)cc3C)ccnc2[nH]1 [Compound F-90, (2R)-2-Amino-4,4-dimethyl-N-[3-methyl-4-(2-methyl-1H-pyrrolo[2,3-b]pyridin-4-yl)phenyl]pentanamide]
% Activity (CDK2/cyclinE(h)): 92%
% Activity (PKD3(h)): 97%
% Activity (PIP4K2a(h)): 100%
% Activity (MuSK(h)): 96%
% Activity (Axl(h)): 91%
% Activity [1]: 96%
% Activity (MRCKα(h)): 94%
% Activity (PEK(h)): 91%
% Activity (CDK18/cyclinY(h)): 94%
% Activity (MSK1(h)): 111%
% Activity (ALK1(h)): 94%
% Activity (ZAP-70(h)): 71%
% Activity (WNK2(h)): 94%
% Activity (CDK5/p25(h)): 72%
% Activity (cKit(h)): 85%
% Activity (FGFR3(h)): 86%
% Activity (SAPK2b(h)): 90%
% Activity (PKCμ(h)): 109%
% Activity [2]: 102%
% Activity (TAO3(h)): 100%
% Activity (JAK2(h)): 104%
% Activity (CaMKIIβ(h)): 93%
% Activity (PI3 Kinase (p120g)(h)): 105%
% Activity (IKKβ(h)): 99%
% Activity (CK2α1(h)): 112%
% Activity (CDK9/cyclin T1(h)): 81%
% Activity (ALK6(h)): 74%
% Activity (MLK3(h)): 91%
% Activity (BrSK2(h)): 83%
% Activity (NEK3(h)): 110%
% Activity (Txk(h)): 110%
% Activity (CDK16/cyclinY(h)): 98%
